Measurements reported in ChEMBL document CHEMBL5143513, “Design, synthesis and biological evaluation of bisindole derivatives as anticancer agents against Tousled-like kinases” (Eur J Med Chem, 2022).
Activity calls are given as the source filed them. The calls are words filed in the database; no cut-off is given here.

Legend:
MDA-MB-231 [1] = experiment: Antiproliferative activity against human MDA-MB-231 cells assessed as increase in cell death rate at 1 uM by trypan blue assay; type: functional, cell-based
MDA-MB-231 [2] = experiment: Cytotoxicity against human MDA-MB-231 cells assessed as reduction in cell viability incubated for 72 hrs by MTT assay; type: functional, cell-based; conditions: MDA-MB-231, 72 h
MDA-MB-231 [3] = experiment: Induction of DNA damage in human MDA-MB-231 cells at 10 uM incubated for 4 hrs by gel electrophoresis method; type: functional, cell-based
[4] = target: T1, Serine/threonine-protein kinase tousled-like 2 (Homo sapiens, UniProt Q86UE8); experiment: Binding affinity to full length FLAG/HA/Strep-tagged TLK2 (388 to 772 residues) (unknown origin) transfected in HEK293T cells by Alexa Fluor 647 staining based FRET assay; type: cell-based
Target sequence in this assay (Q86UE8 whole entry, the tested form may be a part): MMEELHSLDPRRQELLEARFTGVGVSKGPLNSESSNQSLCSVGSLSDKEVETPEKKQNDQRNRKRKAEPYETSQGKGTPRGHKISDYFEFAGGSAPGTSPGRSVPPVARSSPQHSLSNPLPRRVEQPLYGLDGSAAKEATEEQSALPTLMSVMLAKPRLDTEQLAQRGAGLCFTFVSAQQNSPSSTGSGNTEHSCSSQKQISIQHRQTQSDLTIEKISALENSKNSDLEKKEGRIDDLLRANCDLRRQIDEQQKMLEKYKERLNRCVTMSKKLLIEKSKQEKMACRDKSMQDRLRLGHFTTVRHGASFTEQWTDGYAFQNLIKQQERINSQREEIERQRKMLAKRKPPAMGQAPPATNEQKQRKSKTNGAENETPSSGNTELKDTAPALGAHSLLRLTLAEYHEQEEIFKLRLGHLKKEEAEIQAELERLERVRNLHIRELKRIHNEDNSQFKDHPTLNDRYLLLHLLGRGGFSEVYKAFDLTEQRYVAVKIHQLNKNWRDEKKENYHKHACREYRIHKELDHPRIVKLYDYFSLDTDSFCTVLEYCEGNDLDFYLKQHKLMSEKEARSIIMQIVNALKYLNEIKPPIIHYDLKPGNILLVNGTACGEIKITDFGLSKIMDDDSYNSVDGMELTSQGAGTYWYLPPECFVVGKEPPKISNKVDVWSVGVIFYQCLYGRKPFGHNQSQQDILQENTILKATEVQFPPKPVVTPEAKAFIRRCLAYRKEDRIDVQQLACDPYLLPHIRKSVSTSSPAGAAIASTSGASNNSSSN

[5] = target: Histone chaperone ASF1A (Homo sapiens) (UniProt Q9Y294); experiment: Inhibition of ASF1a phosphorylation at S166 residue in human MDA-MB-231 cells at 10 uM incubated for 4 hrs by Western blot analysis; type: cell-based
Sequence of Histone chaperone ASF1A (Homo sapiens) (Q9Y294 whole entry): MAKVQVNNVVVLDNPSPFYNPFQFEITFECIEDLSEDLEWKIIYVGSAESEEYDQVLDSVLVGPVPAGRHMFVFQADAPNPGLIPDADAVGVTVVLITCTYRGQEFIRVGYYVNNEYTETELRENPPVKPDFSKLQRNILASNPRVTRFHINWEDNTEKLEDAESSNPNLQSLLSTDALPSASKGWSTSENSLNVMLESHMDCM

MDA-MB-231 [6] = experiment: Induction of apoptosis in human MDA-MB-231 cells assessed as decrease in Bcl-xL level at 4 uM incubated for 72 hrs by gel electrophoresis method; type: functional, cell-based
MDA-MB-231 [7] = experiment: Induction of apoptosis in human MDA-MB-231 cells assessed as increase in caspase-3 level at 4 uM incubated for 72 hrs by gel electrophoresis method; type: functional, cell-based
A549 = experiment: Cytotoxicity against human A549 cells assessed as reduction in cell viability incubated for 72 hrs by MTT assay; type: functional, cell-based; conditions: A549, 72 h
MDA-MB-231 [8] = experiment: Induction of apoptosis in human MDA-MB-231 cells assessed as increase in caspase-9 level at 4 uM incubated for 72 hrs by gel electrophoresis method; type: functional, cell-based
MDA-MB-231 [9] = experiment: Effect on cell cycle progression in human MDA-MB-231 cells assessed as accumulation of cells at S phase at 2 uM by PI staining based flow cytometric analysis; type: functional
[10] = Cytotoxicity against human MRC5 cells assessed as reduction in cell viability incubated for 72 hrs by MTT assay; type: toxicity, cell-based
[11] = Cytotoxicity against human IMR-90 cells assessed as reduction in cell viability incubated for 72 hrs by MTT assay; type: toxicity, cell-based
MDA-MB-231 [12] = experiment: Antiproliferative activity against human MDA-MB-231 cells assessed as reduction in cell growth at 1 uM by trypan blue assay; type: functional, cell-based
MDA-MB-231 [13] = experiment: Cytotoxicity against human MDA-MB-231 cells assessed as reduction in cell viability at 0.5 uM measured after 72 hrs by MTT assay; type: functional
MDA-MB-231 [14] = experiment: Induction of cell cycle arrest in human MDA-MB-231 cells assessed as increase in cells at sub G1 phase at 2 uM measured after 72 hrs by PI staining based flow cytometric analysis (reference value: 0.8%); type: functional
MDA-MB-231 [15] = experiment: Induction of apoptosis in human MDA-MB-231 cells assessed as decrease in MCL-1 level at 4 uM incubated for 72 hrs by gel electrophoresis method; type: functional, cell-based
MDA-MB-231 [16] = experiment: Antiproliferative activity against human MDA-MB-231 cells assessed as reduction in cell growth at 0.25 uM by trypan blue assay; type: functional, cell-based
HCT-116 = experiment: Cytotoxicity against human HCT-116 cells assessed as reduction in cell viability incubated for 72 hrs by MTT assay; type: functional, cell-based; conditions: HCT-116, 72 h
[17] = target: T1, Serine/threonine-protein kinase tousled-like 2; experiment: Inhibition of full length FLAG/HA/Strep-tagged TLK2 (unknown origin) transfected in HEK293T cells assessed as reduction in ASF1a phosphorylation at S166 residue at 5 uM by Western blot analysis; type: cell-based
Target sequence in this assay (Q86UE8 whole entry, looked up, the tested form may be a part): as the sequence (Q86UE8 whole entry, the tested form may be a part) above

MDA-MB-231 [18] = experiment: Induction of cell cycle arrest in human MDA-MB-231 cells assessed as increase in cells at sub G1 phase at 4 uM measured after 72 hrs by PI staining based flow cytometric analysis (reference value: 0.8%); type: functional
[19] = target: T1, Serine/threonine-protein kinase tousled-like 2; experiment: Inhibition of full length FLAG/HA/Strep-tagged TLK2 (unknown origin) transfected in HEK293T cells at 50 uM using GST-ASF1 as substrate preincubated for 15 mins followed by substrate addition and measured after 15 mins in presence of ATP by Western blot analysis; conditions: time 30.0 min
Target sequence in this assay (Q86UE8 whole entry, looked up, the tested form may be a part): as the sequence (Q86UE8 whole entry, the tested form may be a part) above

U2OS [20] = experiment: Inhibition of DNA replication in PCNA positive human U2OS cells assessed as reduction in EdU level at 50 uM incubated for 4 hrs by immunofluorescence staining based EdU incorporation assay; type: functional, cell-based
U2OS [21] = experiment: Effect on cell cycle progression in human U2OS cells assessed as accumulation of cells at early stage of S phase measured after 8 hrs by PI staining based flow cytometric analysis; type: functional
[22] = target: T1, Serine/threonine-protein kinase tousled-like 2; experiment: Inhibition of full length FLAG/HA/Strep-tagged TLK2 (unknown origin) in human U2OS cells assessed as reduction in ASF1 phosphorylation at 16.7 uM measured after 4 hrs by Western blot analysis; type: cell-based
Target sequence in this assay (Q86UE8 whole entry, looked up, the tested form may be a part): as the sequence (Q86UE8 whole entry, the tested form may be a part) above

U2OS [23] = experiment: Effect on cell cycle progression in human U2OS cells assessed as accumulation of cells at S phase measured after 8 hrs by PI staining based flow cytometric analysis; type: functional; conditions: dose 2.5-20 µM, DDE = dose-dependent effect
[24] = target: T1, Serine/threonine-protein kinase tousled-like 2; experiment: Inhibition of full length FLAG/HA/Strep-tagged TLK2 (unknown origin) transfected in HEK293T cells assessed as reduction in TLK mediated ASF1a phosphorylation at 50 uM by Western blot analysis; type: cell-based
Target sequence in this assay (Q86UE8 whole entry, looked up, the tested form may be a part): as the sequence (Q86UE8 whole entry, the tested form may be a part) above

U2OS [25] = experiment: Induction of DNA damage in human U2OS cells assessed as increase in KAP1 phosphorylation at S824 residue at 5 to 10 uM incubated for 4 hrs by Western blot analysis; type: functional, cell-based; conditions: dose 5-10 µM
[26] = target: T1, Serine/threonine-protein kinase tousled-like 2; experiment: Inhibition of full length FLAG/HA/Strep-tagged TLK2 (unknown origin) in human MDA-MB-231 cells assessed as reduction in ASF1 phosphorylation at 16.7 uM measured after 4 hrs by Western blot analysis; type: cell-based
Target sequence in this assay (Q86UE8 whole entry, looked up, the tested form may be a part): as the sequence (Q86UE8 whole entry, the tested form may be a part) above

U2OS [27] = experiment: Induction of DNA damage in human U2OS cells assessed as increase in RPA2 phosphorylation at S4/S8 residue at 5 to 10 uM incubated for 4 hrs by Western blot analysis; type: functional, cell-based; conditions: dose 5-10 µM
U2OS [28] = experiment: Induction of DNA damage in PCNA positive human U2OS cells assessed as increase in H2AX phosphorylation at S139 residue in S phase by measuring fluorescence intensity at 10 uM incubated for 4 hrs by immunofluorescence microscopy; type: functional, cell-based
U2OS [29] = experiment: Induction of DNA damage in human U2OS cells assessed as increase in CHK2 phosphorylation at T68 residue at 5 to 10 uM incubated for 4 hrs by Western blot analysis; type: functional, cell-based; conditions: dose 5-10 µM
U2OS [30] = experiment: Inhibition of DNA replication in PCNA positive human U2OS cells assessed as reduction in EdU level at 2.5 to 20 uM incubated for 4 hrs by immunofluorescence staining based EdU incorporation assay; type: functional, cell-based; conditions: dose 2.5-20 µM
U2OS [31] = experiment: Induction of DNA damage in human U2OS cells assessed as increase in CHK1 phosphorylation at S345 residue at 2.5 to 5 uM incubated for 4 hrs by Western blot analysis; type: functional, cell-based; conditions: dose 2.5-5 µM
[32] = target: T1, Serine/threonine-protein kinase tousled-like 2; experiment: Inhibition of full length FLAG/HA/Strep-tagged TLK2 (unknown origin) in human U2OS cells assessed as ASF1 phosphorylation by measuring decrease in band shift at 16.7 uM measured after 4 hrs by Western blot analysis; type: cell-based
Target sequence in this assay (Q86UE8 whole entry, looked up, the tested form may be a part): as the sequence (Q86UE8 whole entry, the tested form may be a part) above

Structure (SMILES) | IC50 (MDA-MB-231 [2]) [nM] | inhibition of ASF1a S166 phosphorylation (active/inactive call) [5] | IC50 (A549) [nM] | IC50 at 72 h [10] [nM] | IC50 at 72 h [11] [nM] | Activity (MDA-MB-231 [13]) [%] | IC50 (HCT-116) [nM] | inhibition [17] | further results
CN1CCCC1CCO/N=C1/C(=C2/C(=O)Nc3ccccc32)Nc2ccccc21 (centres undefined) | 250 | Active | 260 | > 2000 | > 2000 | 40 | 370 | Active | Activity (MDA-MB-231 [1]): Active; Activity (MDA-MB-231 [3]): Active; IC50 [4]: 18.6 nM; Activity (MDA-MB-231 [6]): Active; Activity (MDA-MB-231 [7]): Active; Activity (MDA-MB-231 [8]): Active; Activity (MDA-MB-231 [9]): Active; Activity (MDA-MB-231 [12]): Active; Activity (MDA-MB-231 [14]): 15.4%; Activity (MDA-MB-231 [15]): Active; Activity (MDA-MB-231 [16]): Active; Activity (MDA-MB-231 [18]): 25.6%
CN(C)CCCn1cc(C2=C(c3c[nH]c4ccccc34)C(=O)NC2=O)c2ccccc21 |  |  |  |  |  |  |  |  | inhibition [19]: Active
CN1CCCCC1CCO/N=C1/C(=C2/C(=O)Nc3cc(F)ccc32)Nc2ccccc21 (centres undefined) |  |  |  |  |  | <30 |  |  | 
CN1CCCCC1CCO/N=C1/C(=C2/C(=O)Nc3ccc([N+](=O)[O-])cc32)Nc2ccccc21 (centres undefined) |  | Active |  |  |  | 40 |  | Active | 
CN1CCC(O/N=C2/C(=C3/C(=O)Nc4ccccc43)Nc3ccccc32)CC1 | 250 | Active | 190 | > 2000 | > 2000 | 40 | 390 | Active | Activity (MDA-MB-231 [3]): Active; IC50 [4]: 33.1 nM; Activity (MDA-MB-231 [9]): Active; Activity (MDA-MB-231 [16]): Active
CN[C@@H]1C[C@H]2O[C@@](C)([C@@H]1OC)n1c3ccccc3c3c4c(c5c6ccccc6n2c5c31)C(=O)NC4 |  |  |  |  |  |  |  |  | inhibition [19]: Active
CN(C)CCCO/N=C1/C(=C2/C(=O)Nc3ccccc32)Nc2ccccc21 | 440 | Active | 610 | > 2000 | > 2000 | 40 | 710 | Active | Activity (MDA-MB-231 [3]): Active; Activity (MDA-MB-231 [9]): Active
NC(=O)NO |  |  |  |  |  |  |  |  | inhibition (U2OS [20]): Active; Activity (U2OS [21]): Active; inhibition [22]: Active
CN1CCCCC1CCO/N=C1/C(=C2/C(=O)Nc3ccc(F)cc32)Nc2ccccc21 (centres undefined) | 530 | Active | 600 | > 2000 | > 2000 | 40 | 600 | Active | 
COc1ccc2c(c1)c(C1=C(c3c[nH]c4ccccc34)C(=O)NC1=O)cn2CCCN(C)C |  |  |  |  |  |  |  |  | inhibition [19]: Active
CN1CCCCC1CCO/N=C1/C(=C2/C(=O)Nc3ccccc32)Nc2ccc(F)cc21 (centres undefined) |  |  |  |  |  | <30 |  |  | 
CN1CCCCC1CCO/N=C1/C(=C2/C(=O)Nc3cc(Cl)ccc32)Nc2ccccc21 (centres undefined) |  | Active |  |  |  |  |  |  | 
CN1CCCCC1CCO/N=C1/C(=C2/C(=O)Nc3ccccc32)Nc2ccccc21 (centres undefined) | 1170 |  | 1210 | > 2000 | > 2000 | <30 | 1280 |  | Activity (U2OS [23]): Dde; inhibition [24]: Active; Activity (U2OS [25]): Active; IC50 [4]: 163 nM; inhibition [26]: Active; Activity (U2OS [27]): Active; Activity (U2OS [28]): Active; Activity (U2OS [29]): Active; inhibition (U2OS [30]): Active; Activity (U2OS [31]): Active; inhibition [32]: Active
